Data set [1] relates to B16-F10 melanocytes. Put plainly: MTT cell viability after tunicamycin-induced ER stress (Test 1). It counts as cell-based. The conditions noted are these: pre-treated 6 h, then 300 ng/ml tunicamycin, 72 h; FIG. 1. The procedure: B16-F10 melanocytes were seeded (5000 cells per well) in 96-well plates for 24 h. Cells were then treated in quadruplicate with indicated concentration of N-[2-[2-(4-chlorophenyl)-4-thiazolyl]ethyl]-butanamide for 6 h. All the compounds dilutions were made in DMSO and the concentration of the vehicle (DMSO) was kept constant (0.1%) in each well. Cells were then treated with 300 ng/ml tunicamycin to cause ER stress and after 72 h of treatment, cells were observed under microscope and images were captured. Then MTT assay was performed to measure the cell viability. Briefly, MTT (0.5 mg/ml) was added to each well and further incubated for 1 h. Culture medium was removed and the reduced MTT (formazen) was dissolved in DMSO (100 μl per well) and measured at 570 nm. Cell growth in vehicle control was calculated as 100% and the effect of the compounds were calculated accordingly.

The test system of data set [2] is ER (endoplasmic reticulum). The conditions noted are these: cited from earlier work.
The test system of data set [3] is B16-F10 cells. In words: Tyrosinase activity with tunicamycin treatment (Test 2). It counts as cell-based. The conditions noted are these: pre-treated 6 h, tunicamycin 300 ng/ml, 72 h; % of vehicle control; FIG. 2. As for the experimental part: (§1) B16-F10 cells were seeded in 24-well plates (20000 cells per well) for 24 h. Cells were then treated with indicated concentrations of N-[2-[2-(4-chlorophenyl)-4-thiazolyl]ethyl]-butanamide. After 6 h of treatment with N-[2-[2-(4-chlorophenyl)-4-thiazolyl]ethyl]-butanamide, tunicamycin (300 ng/ml) was added to the indicated wells. After 72 h of treatments, cells were washed with PBS and lysed in phosphate buffer (pH 6.8) containing 1 mM EDTA and 01% Triton X-100. Lysate was cleared by centrifugation (12000×g) for 10 min and clear lysate (20 μl) was used for tyrosinase assay. The final concentrations of tyrosinase assay mixture were as follows: phosphate buffer (50 mM, pH 6.8), L-DOPA (1 mM), MBTH (6 mM), DMF (2%). Tyrosinase activity was measured by measuring the colored complex formed at 492 nm. Tyrosinase activity was normalized to total cellular proteins measured by Bradford's reagent and represented as % of vehicle control.

Data set [4] has as its system NHEM, A375 melanoma, B16-F10 melanoma and NIH-3T3 fibroblasts. In words: Cytotoxicity as LDH release (Test 5). It counts as cell-based. The conditions noted are these: 24 hours treatment; FIG. 5. As for the experimental part: NHEM (normal human […] melanocytes), A375 melanoma, B16-F10 melanoma and NIH-3T3 fibroblasts were seeded in 96 well plates for 24 hours. Cells were then treated with VC (DMSO, 0.1%) or with indicated concentrations of N-[2-[2-(4-chlorophenyl)-4-thiazolyl]ethyl]-butanamide for 24 hours. After incubation period, cytotoxicity was measured as % of total LDH released in the culture medium.
(In general: LDH leaks from cells whose membrane has failed.)

The test system of data set [5] is obese-diabetic mouse. The note with it: multiple obese-diabetic mouse models; cited from earlier work.
Data set [6] has as its system cells that expressed a mutant form of rhodopsin. The conditions noted are these: mutant rhodopsin of autosomal dominant retinitis pigmentosa; protein misfolding and ER stress; cited from earlier work.
The test system of data set [7] is black guinea pigs. Put plainly: Animal model of vitiligo, topical application to ears (Test 6). It counts as in vivo, guinea pig. The conditions noted are these: 1% w/w topical formulation, 4 weeks, versus placebo treated ear; FIG. 6. The procedure: Topical formulation (1% w/w N-[2-[2-(4-chlorophenyl)-4-thiazolyl]ethyl]-butanamide) was prepared. Similarly, a placebo formulation was also prepared which was exactly similar to the N-[2-[2-(4-chlorophenyl)-4-thiazolyl]ethyl]-butanamide formulation except the active compound. The animal model of vitiligo was developed in black guinea pigs and the placebo and N-[2-[2-(4-chlorophenyl)-4-thiazolyl]ethyl]-butanamide formulations were applied on to the left and right ears respectively.

Data set [8] deals with melanocytes. Put plainly: Secreted melanin in cell culture supernatant (Test 3). It counts as cell-based. The note with it: 72 h, with tunicamycin; % of control; FIG. 3. As for the experimental part:
Cells were treated as indicated for 72 h. After incubation, cell culture supernatant was used for the estimation of secreted melanin. Secreted melanin was measured at 405 nm against cell culture medium as blank. Melanin levels were normalized to the total cellular proteins and represented as % of control.

The test system of data set [9] is B16-F10 cells. In words: Tyrosinase activity with cocktail of inflammatory cytokines (Test 4). The conditions noted are these: pre-treated 6 h, TNFα, IL1β, IFNγ 10 ng/ml each, 72 h; FIG. 4. It counts as cell-based. The procedure:
In FIG. 4—Cocktail of inflammatory cytokines—Inflammatory cytokines cause inflammation in the system and are implicated for the vitiligo pathology. The “cocktail of inflammatory cytokines” include tumour necrosis factor-alpha (TNFα), interleukin-1 beta (IL-1B) and interferon gamma (IFNγ) at a final concentration of 10 ng/ml each.
as §1, with “(80000” for “(20000”, “a cocktail of inflammatory cytokines (TNFα, IL1β, IFNγ—10 ng/ml each)” for “tunicamycin (300 ng/ml)”, “to” for “to the”, “led to” for “was measured by measuring”, “conversion of L-DOPA into dopachrome that binds to MBTH and forms a color” for “colored”, “which is read” for “formed”

As to `CCCC(=O)NCCc1csc(-c2ccc(Cl)cc2)n1` [N-[2-[2-(4-chlorophenyl)-4-thiazolyl]ethyl]-butanamide], in data set [1], the “cell viability (MTT)” value was “protects melanocytes from tunicamycin induced cell death in a dose dependent manner”. Further, in data set [2], the “ER protein folding output” value is given as “increasing ER protein folding output” and the chaperone expression result was “chronically inducing chaperone expression”. In addition, in data set [3], the tyrosinase activity result was “increases tyrosinase activity and reverses the tunicamycin effect”. Further, the “cytotoxicity (% of total LDH released)” value in data set [4] was “no cytotoxicity”. In addition, in data set [5], the B-cell function result is “improved”, the glucose tolerance result was “improved” and the insulin sensitivity entry is listed as “improved”. The “prevention of cell death” value in data set [6] was “effective in preventing the death of cells”. The ear pigmentation entry in [7] is “potency to cause repigmentation”. Also, the “melanin secretion (melanin levels)” value in data set [8] was “increases melanin levels and reverses the tunicamycin effect”. In addition, the “tyrosinase activity under inflammation” value in data set [9] was “negates inflammation induced effect in melanocytes”.

These data come from US12440478B2, “Process for preparing a potent thiazole compound, pharmaceutical formulation and uses thereof” (AHAMMUNE BIOSCIENCES PRIVATE LIMITED, priority 2018, dated 2025).
